Three compounds from patent publication US12139488B2, “Pyrido[3,2-d]pyrimidine compounds uses thereof for treating a proliferative disease” (Universite de Montreal, priority 2021, dated 2024) can be followed below.

What all share (type): cell-based, human
Test [1] deals with pERK in SK-MEL30 cells (NRAS-Q61K). Nature of the test: Phospho-ERK inhibition (AlphaLISA), SK-MEL30. As to conditions: for SK-MEL30 pERK % Ymin: SK-MEL30, value in parentheses. The protocol:
(§1) All cancer cell lines (A375, A101D, A2058, RKO, HT29 SK-MEL 30, IPC298, HepG2, HCT-116, Lovo, SWV620, SW480, NCI-H358, NCI-H2122, Calu-6, NCIH2087, NCIH1755, NCIH1666 and Mewo) were obtained from ATCC and cultured in RPMI-1640 medium (Gibco) supplemented with 5% heat inactivated fetal bovine serum (FBS, Wisent) at 37° C. under 5% CO2. Cells were maintained in T175 flasks (Greiner). They were passaged by removing the culture medium, washing once in 10 mL of room temperature Phosphate Buffered Saline (PBS; Wisent) and incubating at 37° C. with 2 mL of 0.05% Trypsin (Thermo-Fisher). Trypsin was then inactivated by adding complete growth medium and the cells were then replated in a T175 culture dish at the appropriate dilution. All cell lines were routinely tested for mycoplasma contamination. Tissue type and mutational status of each cell line can be found in Table B.
(§2) AlphaLISA® SureFire® Ultra™ p-ERK 1/2 (Thr202/Tyr204) analysis was conducted on cells plated in 100 μL of complete RPMI-1640 growth medium in 96-well flat-bottomed transparent dishes (Costar) at a density indicated in Table C. Cells were maintained overnight at 37° C. under 5% CO2 before treatment with compounds' dilution series for one hour. The cell density in cells/cm^2 corresponds to cell number divided by the area of one well of a 96-well plate ([…]).
(§3) In a dilution series 100 μL/well of test substance dilution prepared in complete RPMI-1640 growth media was added to the cells. The dilution series is selected so that ten concentrations cover a range from 10 μM to 0.33 nM. If necessary the initial concentration of 10 μM is increased to 100 μM or lowered to 1 μM (as in the case of A375 and H1666 cells, which are generally more sensitive to the compounds) and further dilution is carried out accordingly. The final concentration of DMSO in the assay is set at 0.5%.
(§4) After treatment, media was removed and cells were lysed in 50 μL of 1× AlphaScreen Ultra Lysis Buffer (Perkin Elmer). The AlphaLISA® SureFire® Ultra™ p-ERK 1/2 (Thr202/Tyr2O4) (PerkinElmer) reactions were performed with 5 μL of cell lysate according to the manufacturer's specifications in 384-well proxyplates (Perkin Elmer) followed by overnight incubation of the reactions at room temperature in a humidified chamber. After completion of the reactions, the signals were recorded on an EnVision plate reader (Perkin Elmer) using built in AlphaLISA® settings.
(§5) The effect of each compound dilution on the pERK signal was expressed in % inhibition and calculated as follows. An internal 100% inhibition control ([…] trametinib, cat #HY-10999; MedChem Express; CAS #871700-17-3) was included in each plate and used as a measure of pERK background. First, the value obtained for trametinib was subtracted from each data point. The average of DMSO (vehicle) controls (set as 0% inhibition) was established and used to calculate % inhibition: % inhibition=100*(1-((pERK signalcompound)/(pERK signalDMSO)))
(§6) The ability of each compound to inhibit pERK signal was expressed as an IC50 value obtained by plotting the inhibition values for each data point of a dilution series and fitting the obtained curves using a log(agonist) versus response-variable slope (four parameters) function using GraphPadPrism (V7.0) or Dotmatics Screening Ultra platform.
(§7) When present, paradoxical pERK induction is inferred from the negative % inhibition values observed in the pERK IC50 curves of a compound.

For test [2], the system named is pERK in NCI-H358 cells (KRAS-G12C). As to the kind of experiment: Phospho-ERK inhibition (AlphaLISA), NCI-H358. As to conditions: for IC50: NCI-H358; for NCI-H358 pERK % Ymin: NCI-H358, value in parentheses. The method, then:
as §1, §2, §3, §4, §5, §6, §7
For orientation: Alpha assays give light when donor and acceptor beads are brought close together.

The subject of test [3] is A375 cells (BRAF V600E). Nature of the test: Proliferation inhibition (CellTiter-Glo), A375. As to conditions: A375, 3 days, read-out: A375 Prolif. EC50. The protocol:
as §1
(§8) CellTiter-Glo® viability analysis was conducted on cells plated in 100 μL of complete RPMI-1640 growth medium in 96-well flat-bottomed white opaque plates (Greiner or Croning) at a density indicated in Table E (for each CCL, number of cells plated per well of a 96-well plate to perform the CellTiter-Glo® cell viability assay). The cell density in cells/cm^2 would correspond to cell number divided by the area of one well of a 96-well plate (0.32 cm^2). […]
(§9) After 3 days of incubation, the growth media were removed by aspiration and 60 μL of diluted CellTiter-Glo® reagent (10 μL CellTiter-Glo® reagent+50 μL of PBS) was added to each well. […] Luminescence signals were then acquired on a Synergy Neo2 plate reader (Biotek).
(§10) The effect of each compound dilution on the proliferation of cancer cell lines was expressed in % inhibition and calculated as follows. […]
(§11) The ability of each compound to inhibit proliferation was expressed as a EC50 value obtained by plotting the effect values for each data point of a dilution series and fitting the obtained curves using a log(agonist) versus response-variable slope (four parameters) function using GraphPadPrism (V7.0) or Dotmatics Screening Ultra platform.
A general note: Cellular ATP, detected with luciferase, serves as a proxy for viable cell number.

Test [4] deals with pERK in Mewo cells (NF1 LOF). Nature of the test: Phospho-ERK inhibition (AlphaLISA), Mewo. As to conditions: for Mewo pERK % Ymin: value in parentheses. The protocol: as §1, §2, §3, §4, §5, §6, §7
Test [5] concerns NCIH1755 cells (BRAF G469A). Nature of the test: Proliferation inhibition (CellTiter-Glo), NCIH1755. As to conditions: NCIH1755, 3 days, read-out: NCIH1755 Prolif. EC50. The method, then: as §1, §8, §9, §10, §11
Test [6] has as its system pERK in IPC298 cells (NRAS-Q61L). As to the kind of experiment: Phospho-ERK inhibition (AlphaLISA), IPC298. As to conditions: for IPC298 pERK % Ymin: IPC298, value in parentheses. The method, then:
as §1, §2, §3, §4, §5, §6, §7

Like-named read-outs stand apart in the source and are kept apart here.

In general, IC50 refers to the concentration that gives 50% inhibition. Read a low IC50 as higher potency. What is called EC50 is the concentration that produces a half-maximal response.

In the case of `CC1(O)CCN(c2cccc3c2ncn3-c2ccc3ncnc(Nc4c(F)ccc(NS(=O)(=O)c5cccc(Cl)c5Cl)c4F)c3n2)CC1` [Example 524], the IC50 in test [1] (SK-MEL30) is less than 30 nM; in test [2], 30 to 300 nM; in test [4] (Mewo) it was 30 to 300 nM; in test [6] (IPC298), 30 to 300 nM. In test [1], the “SK-MEL30 pERK % Ymin” value is recorded as −13%. The “NCI-H358 pERK % Ymin” value in test [2] is given as −13%. In addition, the 50% effective concentration (EC50) in test [3] was less than 30 nM; in test [5] it was 300 to 3000 nM. In test [4] (Mewo), the “Mewo pERK % Ymin” value is on record as −5%. The “IPC298 pERK % Ymin” value in test [6] is listed as 13%.

Take `Nc1cccc2c1ncn2-c1ccc2ncnc(Nc3c(F)ccc(NS(=O)(=O)c4cccc(Cl)c4Cl)c3F)c2n1` [Example 99]: the half-inhibitory concentration (IC50) was less than 30 nM in test [1] (SK-MEL30), 30 to 300 nM in test [2], 30 to 300 nM in test [4] (Mewo) and 30 to 300 nM in test [6] (IPC298). For the same compound, the “SK-MEL30 pERK % Ymin” value in test [1] is given as −1%. Further, the “NCI-H358 pERK % Ymin” value in test [2] is 11%. The EC50 in test [3] and in test [5] was less than 30 nM in each case. Besides, the “Mewo pERK % Ymin” value in test [4] (Mewo) was −7%. In test [6], the “IPC298 pERK % Ymin” value is on record as −2%.

`Cc1ccc2c(Nc3cccc(Cl)c3F)nccc2c1NC(=O)c1csc2c(N)ncnc12` [Belvarafenib, reference compound]: the concentration for half-maximal inhibition (IC50) in test [1] (Homo sapiens, SK-MEL-30) is less than 30 nM; in test [2] (Homo sapiens), 30 to 300 nM; in test [4] (Homo sapiens, MeWo), 30 to 300 nM; in test [6] (Homo sapiens, IPC-298), 30 to 300 nM. Besides, the “SK-MEL30 pERK % Ymin” value in test [1] is −45%. Further, in test [2], the “NCI-H358 pERK % Ymin” value is on record as −122%. Also, the EC50 was less than 30 nM in test [3] (Homo sapiens, A-375, 72 h) and greater than 3000 nM in test [5] (Homo sapiens, NCI-H1755, 72 h). In test [4] (Mewo), the “Mewo pERK % Ymin” value is recorded as −116%. The “IPC298 pERK % Ymin” value in test [6] is on record as −63%.
